Test results published in patent US20080280879A1, “SUBSTITUTED HETEROCYCLIC DERIVATIVES AND THEIR PHARMACEUTICAL USE AND COMPOSITIONS” (priority 2007, published 2008).
Values after ≈ are worked out from the molar mass of the structure shown.

Tests used:
Type in all cases: cell-based, Staphylococcus aureus
Staph aureus 1095 MRSA = assay: MIC, microtiter broth dilution (CLSI M7-A7), Assay 1, Table 12 column A, no serum; details: Assay 1, no serum; for MIC: Staphylococcus aureus, MRSA
How it was run: (§1)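 MIC read as lowest drug level giving no macroscopically visible growth, μg/ml. Method: CLSI M7-A7 microtiter broth dilution, M100-S16 interpretation. Serum arm: inoculum in Mueller-Hinton Broth + 50% pooled inactivated human serum. Multiple runs → geometric mean.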

Staph aureus 1146 [1] = assay: MIC, microtiter broth dilution (CLSI M7-A7), Assay 1, Table 12 column B, no serum; details: for MIC: Staphylococcus aureus, 1146, Staph aureus 1146, Assay 1, no serum; for MIC, column B: Staph aureus 1146, Assay 1, no serum
How it was run: as §1

Staph aureus 1146 [2] = assay: MIC in Mueller-Hinton Broth with 50% pooled inactivated human serum, Assay 1, Table 12; details: for MIC, column C: Staph aureus 1146, Assay 1, 50% human serum; for MIC: Staphylococcus aureus, 1146, Staph aureus 1146, Assay 1, 50% human serum, read-out: MIC, column C
How it was run: as §1

Staph aureus 2811 = assay: MIC, microtiter broth dilution (CLSI M7-A7), Assay 1, Table 12 column D, no serum; details: for MIC: Staphylococcus aureus, 2811, Staph aureus 2811, Assay 1, no serum; for MIC, column D: Staph aureus 2811, Assay 1, no serum
How it was run: as §1

Staph aureus 2812 = assay: MIC, microtiter broth dilution (CLSI M7-A7), Assay 1, Table 12 column E, no serum; details: for MIC, column E: Staph aureus 2812, Assay 1, no serum; for MIC: Staphylococcus aureus, 2812, Staph aureus 2812, Assay 1, no serum
How it was run: as §1

Row | MIC, column A (Staph aureus 1095 MRSA) | MIC (Staph aureus 1146 [1]) | MIC, column C (Staph aureus 1146 [2]) | MIC (Staph aureus 2811) | MIC, column E (Staph aureus 2812) | MIC (Staph aureus 1095 MRSA) | MIC (Staph aureus 2812) | MIC, column B (Staph aureus 1146 [1]) | MIC, column D (Staph aureus 2811) | MIC (Staph aureus 1146 [2]) | Structure (SMILES)
1 | <0.0625 µg/mL | < 0.0625 µg/mL | 2.00 µg/mL (≈ 3.67 µM) | < 0.0625 µg/mL | <0.0625 µg/mL | – | – | – | – | – | COc1ccc2ncc(Cl)c(C(O)CC[C@@H]3CCN(C4CC(c5cc(F)ccc5F)C4)C[C@@H]3C(=O)O)c2c1 (stereo partly drawn) [Example 186, (3R,4R)-4-[3-(3-chloro-6-methoxyquinolin-4-yl)-3-hydroxypropyl]-1-[3-(2,5-difluorophenyl)cyclobutyl]piperidine-3-carboxylic acid]
2 | – | < 0.0625 µg/mL | 1.00 µg/mL (≈ 1.96 µM) | < 0.0625 µg/mL | – | < 0.0625 µg/mL | < 0.0625 µg/mL | – | – | – | COc1ccc2ncc(Cl)c(C(O)CC[C@@H]3CCN(C4CC(c5ccccc5)C4)C[C@@H]3C(=O)O)c2c1 (stereo partly drawn) [Example 187, (3R,4R)-4-[3-(3-chloro-6-methoxyquinolin-4-yl)-3-hydroxypropyl]-1-(3-phenylcyclobutyl)piperidine-3-carboxylic acid]
3 | – | < 0.0625 µg/mL | 0.500 µg/mL (≈ 0.917 µM) | < 0.0625 µg/mL | – | < 0.0625 µg/mL | < 0.0625 µg/mL | – | – | – | COc1ccc2ncc(Cl)c(C(O)CC[C@@H]3CCN(C4CC(c5c(F)cccc5F)C4)C[C@@H]3C(=O)O)c2c1 (stereo partly drawn) [Example 188, (3R,4R)-4-[3-(3-chloro-6-methoxyquinolin-4-yl)-3-hydroxypropyl]-1-[3-(2,6-difluorophenyl)cyclobutyl]piperidine-3-carboxylic acid]
4 | <0.0625 µg/mL | – | 0.125 µg/mL (≈ 0.236 µM) | – | <0.0625 µg/mL | – | – | <0.0625 µg/mL | <0.0625 µg/mL | – | COc1ccc2ncc(F)c(C(O)CC[C@@H]3CCN(C4CC(c5c(F)cccc5F)C4)C[C@@H]3C(=O)O)c2n1 (stereo partly drawn) [Example 189, (3R,4R)-1-[3-(2,6-difluorophenyl)cyclobutyl]-4-[3-(3-fluoro-6-methoxy-1,5-naphthyridin-4-yl)-3-hydroxypropyl]piperidine-3-carboxylic acid]
5 | <0.0625 µg/mL | – | 1.00 µg/mL (≈ 1.89 µM) | – | 0.125 µg/mL (≈ 0.236 µM) | – | – | <0.0625 µg/mL | <0.0625 µg/mL | – | COc1ccc2ncc(F)c(C(O)CC[C@@H]3CCN(C4CC(c5c(F)cccc5F)C4)C[C@@H]3C(=O)O)c2n1 (stereo partly drawn) [Example 190, (3R,4R)-1-[3-(2,6-difluorophenyl)cyclobutyl]-4-[3-(3-fluoro-6-methoxy-1,5-naphthyridin-4-yl)-3-hydroxypropyl]piperidine-3-carboxylic acid]
6 | – | 1 µg/mL (≈ 1.97 µM) | – | 1 µg/mL (≈ 1.97 µM) | – | 4 µg/mL (≈ 7.9 µM) | 2 µg/mL (≈ 3.95 µM) | – | – | 32 µg/mL (≈ 63.2 µM) | COc1ccc2nccc(C(O)CC[C@@H]3CCN(C4CC(Cc5cccc(F)c5)C4)C[C@@H]3C(=O)O)c2c1 (stereo partly drawn) [Example 192, (3R,4R)-1-[3-(3-fluorobenzyl)cyclobutyl]-4-[3-hydroxy-3-(6-methoxyquinolin-4-yl)propyl]piperidine-3-carboxylic acid]
7 | – | < 0.0625 µg/mL | – | < 0.0625 µg/mL | – | < 0.0625 µg/mL | < 0.0625 µg/mL | – | – | 1 µg/mL (≈ 1.89 µM) | COc1ccc2nccc([C@@H](O)CC[C@@H]3CCN(C4CC(c5c(F)ccc(F)c5F)C4)C[C@@H]3C(=O)O)c2c1 (stereo partly drawn) [Example 195, (3R,4R)-4-[(3S)-3-hydroxy-3-(6-methoxyquinolin-4-yl)propyl]-1-[3-(2,3,6-trifluorophenyl)cyclobutyl] piperidine-3-carboxylic acid]
8 | – | 1 µg/mL (≈ 1.75 µM) | – | 1 µg/mL (≈ 1.75 µM) | – | 8 µg/mL (≈ 14 µM) | 2 µg/mL (≈ 3.5 µM) | – | – | 64 µg/mL (≈ 112 µM) | COc1ccc2nccc([C@@H](O)CC[C@@H]3CCN(C4CC(c5ccc(Br)cc5F)C4)C[C@@H]3C(=O)O)c2c1 (stereo partly drawn) [Example 196, (3R,4R)-1-[3-(4-bromo-2-fluorophenyl)cyclobutyl]-4-[(3S)-3-hydroxy-3-(6-methoxyquinolin-4-yl)propyl] piperidine-3-carboxylic acid]
9 | – | < 0.0625 µg/mL | – | < 0.0625 µg/mL | – | 0.5 µg/mL (≈ 0.946 µM) | < 0.0625 µg/mL | – | – | 4 µg/mL (≈ 7.57 µM) | COc1ccc2nccc([C@@H](O)CC[C@@H]3CCN(C4CC(c5ccc(F)c(F)c5F)C4)C[C@@H]3C(=O)O)c2c1 (stereo partly drawn) [Example 197, (3R,4R)-4-[(3S)-3-hydroxy-3-(6-methoxyquinolin-4-yl)propyl]-1-[3-(2,3,4-trifluorophenyl)cyclobutyl] piperidine-3-carboxylic acid]
10 | – | < 0.0625 µg/mL | – | < 0.0625 µg/mL | – | 0.125 µg/mL (≈ 0.243 µM) | < 0.0625 µg/mL | – | – | > 64 µg/mL | COc1ccc2ncc(Cl)c(CCCC3(C(=O)O)CCN(C[C@@H]4C[C@H]4c4cc(F)ccc4F)C3)c2c1 (stereo partly drawn) [Example 198, 3-[3-(3-chloro-6-methoxyquinolin-4-yl)propyl]-1-{[(1R,2R)-2-(2,5-difluorophenyl)cyclopropyl]methyl} pyrrolidine-3-carboxylic acid]
11 | – | < 0.0625 µg/mL | – | < 0.0625 µg/mL | – | 0.125 µg/mL (≈ 0.236 µM) | < 0.0625 µg/mL | – | – | > 64 µg/mL | COc1ccc2ncc(Cl)c(CCCC3(C(=O)O)CCN(C4CCC(c5cc(F)ccc5F)C4)C3)c2c1 (stereo not shown) [Example 199, 3-[3-(3-chloro-6-methoxyquinolin-4-yl)propyl]-1-[3-(2,5-difluorophenyl)cyclopentyl]pyrrolidine-3-carboxylic acid]
12 | – | 8 µg/mL (≈ 14.9 µM) | – | 8 µg/mL (≈ 14.9 µM) | – | 32 µg/mL (≈ 59.4 µM) | 8 µg/mL (≈ 14.9 µM) | – | – | > 64 µg/mL | COc1ccc2nccc([C@@H](O)CC[C@@H]3CCN(C4CC(c5c(F)cccc5F)C4(C)C)C[C@@H]3C(=O)O)c2c1 (stereo partly drawn) [Example 200, (3R,4R)-1-[3-(2,6-difluorophenyl)-2,2-dimethylcyclobutyl]-4-[(3S)-3-hydroxy-3-(6-methoxyquinolin-4-yl)propyl]piperidine-3-carboxylic acid]
13 | – | 2 µg/mL (≈ 3.88 µM) | – | 2 µg/mL (≈ 3.88 µM) | – | 16 µg/mL (≈ 31 µM) | 4 µg/mL (≈ 7.76 µM) | – | – | 8 µg/mL (≈ 15.5 µM) | O=C(O)[C@H]1CN(C2CC(c3c(F)cccc3F)C2)CC[C@H]1CCC(O)c1c(F)cnc2ccc(O)nc12 (stereo partly drawn) [Example 201, (3R,4R)-1-[3-(2,6-difluorophenyl)cyclobutyl]-4-[3-(3-fluoro-6-hydroxy-1,5-naphthyridin-4-yl)-3-hydroxypropyl]piperidine-3-carboxylic acid]
14 | – | 2 µg/mL (≈ 3.81 µM) | – | 2 µg/mL (≈ 3.81 µM) | – | 8 µg/mL (≈ 15.2 µM) | 4 µg/mL (≈ 7.62 µM) | – | – | 64 µg/mL (≈ 122 µM) | COc1ccc2nccc(C(O)CC[C@@H]3CCN(C4CC(Cc5cc(F)ccc5F)C4)C[C@@H]3C(=O)O)c2c1 (stereo partly drawn) [Example 202, (3R,4R)-1-[3-(2,5-difluorobenzyl)cyclobutyl]-4-[3-hydroxy-3-(6-methoxyquinolin-4-yl)propyl]piperidine-3-carboxylic acid]
15 | 0.250 µg/mL (≈ 0.459 µM) | – | 16.0 µg/mL (≈ 29.4 µM) | – | 0.125 µg/mL (≈ 0.229 µM) | – | – | 0.125 µg/mL (≈ 0.229 µM) | 0.125 µg/mL (≈ 0.229 µM) | – | COc1ccc2ncc(Cl)c(C(O)CC[C@@H]3CCN(C4CC(c5cc(F)ccc5F)C4)C[C@@H]3C(=O)O)c2c1 (stereo partly drawn) [Example 203, (3R,4R)-4-[3-(3-chloro-6-methoxyquinolin-4-yl)-3-hydroxypropyl]-1-[3-(2,5-difluorophenyl)cyclobutyl]piperidine-3-carboxylic acid]
16 | 0.250 µg/mL (≈ 0.459 µM) | – | 4.00 µg/mL (≈ 7.34 µM) | – | 0.250 µg/mL (≈ 0.459 µM) | – | – | 0.125 µg/mL (≈ 0.229 µM) | 0.125 µg/mL (≈ 0.229 µM) | – | COc1ccc2ncc(Cl)c(C(O)CC[C@@H]3CCN(C4CC(c5cc(F)ccc5F)C4)C[C@@H]3C(=O)O)c2c1 (stereo partly drawn) [Example 204, (3R,4R)-4-[3-(3-chloro-6-methoxyquinolin-4-yl)-3-hydroxypropyl]-1-[3-(2,5-difluorophenyl)cyclobutyl]piperidine-3-carboxylic acid]
17 | – | < 0.0625 µg/mL | – | < 0.0625 µg/mL | – | < 0.0625 µg/mL | < 0.0625 µg/mL | – | – | 2 µg/mL (≈ 3.78 µM) | COc1ccc2ncc(F)c(C(O)CC[C@@H]3CCN(C4CC(c5cc(F)ccc5F)C4)C[C@@H]3C(=O)O)c2n1 (stereo partly drawn) [Example 205, (3R,4R)-1-[3-(2,5-difluorophenyl)cyclobutyl]-4-[3-(3-fluoro-6-methoxy-1,5-naphthyridin-4-yl)-3-hydroxypropyl]piperidine-3-carboxylic acid]

Row | Structure (SMILES) | MIC, column A (Staph aureus 1095 MRSA) | MIC (Staph aureus 1146 [1]) | MIC, column C (Staph aureus 1146 [2]) | MIC (Staph aureus 2811) | MIC, column E (Staph aureus 2812) | MIC (Staph aureus 1095 MRSA) | MIC (Staph aureus 2812) | MIC, column B (Staph aureus 1146 [1]) | MIC, column D (Staph aureus 2811) | MIC (Staph aureus 1146 [2])
18 | COc1ccc2nccc([C@@H](O)CC[C@@H]3CCN(C4CC(c5cc(F)c(F)cc5F)C4)C[C@@H]3C(=O)O)c2c1 (stereo partly drawn) [Example 191, (3R,4R)-4-[(3S)-3-hydroxy-3-(6-methoxyquinolin-4-yl)propyl]-1-[3-(2,4,5-trifluorophenyl)cyclobutyl] piperidine-3-carboxylic acid] | – | < 0.0625 µg/mL | – | < 0.0625 µg/mL | – | 0.125 µg/mL (≈ 0.236 µM) | < 0.0625 µg/mL | – | – | 1 µg/mL (≈ 1.89 µM)
19 | COc1ccc2nccc([C@@H](O)CC[C@@H]3CCN(C4CC(c5cccc(C(F)(F)F)c5F)C4)C[C@@H]3C(=O)O)c2c1 (stereo partly drawn) [Example 193, (3R,4R)-1-{3-[2-fluoro-3-(trifluoromethyl)phenyl]cyclobutyl}-4-[(3S)-3-hydroxy-3-(6-methoxyquinolin-4-yl)propyl]piperidine-3-carboxylic acid] | – | 0.125 µg/mL (≈ 0.223 µM) | – | 0.125 µg/mL (≈ 0.223 µM) | – | 0.5 µg/mL (≈ 0.892 µM) | 0.125 µg/mL (≈ 0.223 µM) | – | – | 64 µg/mL (≈ 114 µM)
20 | COc1ccc2nccc([C@@H](O)CC[C@@H]3CCN(C4CC(c5ccc(C(F)(F)F)cc5F)C4)C[C@@H]3C(=O)O)c2c1 (stereo partly drawn) [Example 194, (3R,4R)-1-{3-[2-fluoro-4-(trifluoromethyl)phenyl]cyclobutyl}-4-[(3S)-3-hydroxy-3-(6-methoxyquinolin-4-yl)propyl]piperidine-3-carboxylic acid] | – | 2 µg/mL (≈ 3.57 µM) | – | 2 µg/mL (≈ 3.57 µM) | – | 4 µg/mL (≈ 7.14 µM) | 2 µg/mL (≈ 3.57 µM) | – | – | > 64 µg/mL
